Where “and” joins values, the source holds several entries; their conditions need not be identical. Identical values can stand only once. Entries after “also recorded” stand apart in the source; their conditions may differ.
Assays:
[1] = Clinical study: post-prandial lipids 4 hours after fat-rich test meal; type: in vivo, human; settings: 6 weeks
Procedure: At visit 2, subjects were again asked to fast for 12 hours, and information about subject characteristics including all vital signs, recent illness or hospitalization, medication and supplement use, and diet information was again obtained. Subjects then had blood drawn for a metabolic profile and complete blood counts. […] Subjects (30 in each group) were then randomized equally for 6 weeks to one of four treatment arms: 1) olive oil placebo; 2) 600 mg of EPA/day; 3) 1800 mg of EPA/day; and, 4) 600 mg of DHA/day. At one week and three weeks after beginning the supplements, all study subjects were contacted by telephone and asked about any adverse effects and about their compliance, and the information on their calendars with regard to capsule use and fish intake. They were also asked about whether they had experienced any fishy aftertaste or odor, and if so, how frequent were these episodes, and how unpleasant were they? The entire process as listed above was repeated after study subjects were on the study capsules for 6 weeks at the time of the final visit. Compliance and adverse events were assessed by telephone at weeks 1 and 3 by telephone and at week 6 by questionnaire and capsule count. Over 42 days, subjects were expected to have consumed a total of 252 capsules. Compliance was calculated as a percentage of consumed capsule count/expected capsule count based on the number of days the subject was in the study. All subjects were asked to stay on their capsules until they come in for their final visit. Compliance in all participants who completed the study was based on capsule count was in excess of 85%, mean 96%.
(§1) On the samples obtained 4 hours after the fat-rich meal, total cholesterol, triglycerides, direct HDL cholesterol, and direct LDL cholesterol were measured. Direct LDL cholesterol and small dense LDL cholesterol levels were measured using kits obtained from Denka-Seiken Corporation, (Tokyo, Japan), as previously described (Okada, M. et al., supra; Hirano, T. et al., supra; Ai, M. et al., supra). Remnant lipoprotein cholesterol was measured using kits obtained from Polymedco (Cortland Manor, N.Y.) and manufactured by Otsuka Corporation (Tokyo, Japan) as previously described (McNamara, J. R. et al., Atherosclerosis, supra). All lipid assays are standardized through the Lipid Research Clinics standardization program of the Centers for Disease Control (Atlanta, Ga.). All assays had between and within run coefficients of variation of <5%. Serum fatty acid profiles were analyzed by Nutrasource Diagnostics (Guelph, Ontario, Canada).

[2] = Clinical study: serum fatty acid profiles (EPA, ARA/EPA, Total Omega-3 Score); type: in vivo, human; settings: 6 weeks; for Total Omega-3 Score: FIG. 4; for serum level of EPA / serum ratio of ARA/EPA (Inflammation Index): EPA 600 and 1800 mg/day, DHA 600 mg/day; for serum level of EPA: FIG. 1; for serum ratio of ARA/EPA (Inflammation Index): FIG. 3
Procedure: as §1

[3] = Clinical study: adverse effects and safety testing; type: in vivo, human
Procedure: The goal of this study was to test the safety and efficacy of an EPA-enriched oil (as described in Examples 1-3; E.I. duPont de Nemours & Co., Inc. Applied Biosciences, Wilmington, Del.), to corroborate the safety of a novel oil rich in EPA in humans prior to this product being placed on the market as a dietary supplement. This oil was tested at doses of 600 mg and 1800 mg of EPA/day as compared to olive oil placebo and a comparator omega-3 oil providing 600 mg of DHA/day over a 6 week period in a parallel arm design in approximately 120 healthy adults studied in both the fasting and post-prandial state. Safety was monitored by assessing for adverse reactions, measuring vital signs and a variety of laboratory tests including a complete metabolic profile, thyroid function tests, complete blood count, and prothrombin time.
Standard chemistry tests were carried at all visits (screening, enrollment, and final study visit after an overnight fast by Quest Laboratories, Cambridge, Mass.): blood urea nitrogen, creatinine, calculated glomerular filtration rate, sodium, potassium, chloride, carbon dioxide, calcium, total protein, albumin, globulin, total bilirubin, alkaline phosphatase, liver transaminases AST and ALT, and glucose. A complete blood count was also performed at all visits and included: hemoglobin, hematocrit, red blood cell count, platelet count, white blood cell count and a white blood cell count differential. Additional tests included: prothrombin time, and measurement of thyroid function including T3, T4 and T3 uptake. […]
At visit 2, subjects were again asked to fast for 12 hours, and information about subject characteristics including all vital signs, recent illness or hospitalization, medication and supplement use, and diet information was again obtained. […] Compliance and adverse events were assessed by telephone at weeks 1 and 3 by telephone and at week 6 by questionnaire and capsule count. […] Compliance was calculated as a percentage of consumed capsule count/expected capsule count based on the number of days the subject was in the study. […]

[4] = cited from earlier work; for effects on C-reactive protein, interleukin-6, or tumor necrosis alpha: 4 grams per day; for reduction of triglyceride levels: overweight, hyperlipidemic men
[5] = cited from earlier work; for better absorbed than EE forms: TG forms

With `CCC=CCC=CCC=CCC=CCC=CC/C=C\CCC(=O)O` [DHA, cis-4,7, 10, 13, 16, 19-docosahexaenoic acid, reference compound] the “HDL C, 6-Week Change (%)” value ([1]; DHA 600 mg (n = 28)) was “+1.2 ± 10.9%”, the “HDL C, Final” value ([1]; DHA 600 mg (n = 28)) was 57.5 ± 22.7 mg/dL and the “LDL C, Final” value ([1]; DHA 600 mg (n = 28)) was 121.9 ± 32.9 mg/dL. The “Total Cholesterol, 6-Week Change (%)” value ([1]; DHA 600 mg (n = 28)) was “+6.2 ± 10.8%”, the “Total Cholesterol, Final” value ([1]; DHA 600 mg (n = 28)) was 211.1 ± 38.6 mg/dL and the “Triglyceride, 6-Week Change (%)” value ([1]; DHA 600 mg (n = 28)) was −9.5% and −9.5 ± 24.4%. For the same compound, the “Triglyceride, Final” value ([1]; DHA 600 mg (n = 28)) was 169.8 ± 89.2 mg/dL, the “retroconversion of DHA to EPA” value [2] was “no indication” and the “Total Omega-3 Score” value [2] was “increased”. The “serum level of EPA” value [2] was “not”, the “serum ratio of ARA/EPA (Inflammation Index)” value ([2]; listed as DHA-rich oil) was “no such effect” and the “fishy odor with belching occasionally experienced (share of subjects)” value (“fishy odor” below) ([3]; DHA 600 mg group) was 39%. For the same compound, the “effects on C-reactive protein, interleukin-6, or tumor necrosis alpha” value [4] was “no significant effects”, the HDL2 cholesterol ([4]; 4 grams/day) was “significantly increased” and the “forearm blood flow in response to acetylcholine infusion relative to placebo” value ([4]; 4 grams/day) was “significantly increased”. The “reduction of triglyceride levels” value ([4]; 4 grams/day) was 20% and the “better absorbed than EE forms” value [5] was 36%.

For `CCC=CCC=CCC=CCC=CC/C=C\CCCC(=O)O` [EPA, cis-5,8, 11, 14, 17-eicosapentaenoic acid], the “HDL C, 6-Week Change (%)” value ([1]; EPA 600 mg (n = 27)) was “+4.8 ± 20.7%”, the “HDL C, Final” value ([1]; EPA 600 mg (n = 27)) was 53.1 ± 16.4 mg/dL and the “LDL C, 6-Week Change (%)” value ([1]; EPA 600 mg (n = 27)) was −1.4 ± 12.9%. The “LDL C, Final” value ([1]; EPA 600 mg (n = 27)) was 108.2 ± 32.2 mg/dL, the “Total Cholesterol, 6-Week Change (%)” value ([1]; EPA 600 mg (n = 27)) was −0.3 ± 8.6% and the “Total Cholesterol, Final” value ([1]; EPA 600 mg (n = 27)) was 193.3 ± 44.7 mg/dL. The “Triglyceride, 6-Week Change (%)” value ([1]; EPA 600 mg (n = 27)) was −3.1 ± 36.9%, the “Triglyceride, Final” value ([1]; EPA 600 mg (n = 27)) was 184.9 ± 98.5 mg/dL and the “HDL C, 6-Week Change (%)” value ([1]; EPA 1800 mg (n = 29)) was “+3.4 ± 11.5%”. The “HDL C, Final” value ([1]; EPA 1800 mg (n = 29)) was 55.3 ± 15.3 mg/dL, the “LDL C, 6-Week Change (%)” value ([1]; EPA 1800 mg (n = 29)) was −2.7 ± 13.6% and the “LDL C, Final” value ([1]; EPA 1800 mg (n = 29)) was 111.5 ± 25.2 mg/dL. The “Total Cholesterol, 6-Week Change (%)” value ([1]; EPA 1800 mg (n = 29)) was −1.4 ± 9.9%, the “Total Cholesterol, Final” value ([1]; EPA 1800 mg (n = 29)) was 197.3 ± 33.8 mg/dL and the “Triglyceride, 6-Week Change (%)” value ([1]; EPA 1800 mg (n = 29)) was −3.8 ± 40.2%. For the same compound, the “Triglyceride, Final” value ([1]; EPA 1800 mg (n = 29)) was 193.5 ± 184.2 mg/dL, the “metabolic conversion of EPA to DHA” value [2] was “no indication” and the “Total Omega-3 Score” value [2] was “increased”. For the same compound, the “serum level of EPA” value [2] was “significantly raised”, the “serum ratio of ARA/EPA (Inflammation Index)” value ([2]; listed as EPA substantially free of DHA) was “significantly decreased” and the “serum ratio of ARA/EPA (Inflammation Index)” value ([2]; listed as EPA-rich oil) was “dose-related decrease; also recorded: significantly decreased”. The “fishy odor” value ([3]; EPA 600 mg group) was 15%, the “fishy odor” value ([3]; EPA 1800 mg group) was 28% and the “effects on C-reactive protein, interleukin-6, or tumor necrosis alpha” value [4] was “no significant effects”. For the same compound, the “reduction of triglyceride levels” value ([4]; 4 grams/day) was 18%, the “better absorbed than EE forms” value [5] was 48% and the “EPA incorporation into plasma lipids” value ([5]; administered as an EE) was “considerably smaller”.
